Measured values as given in patent US20040121931A1, “Aqueous perborate bleach composition” (Unilever Home & Persona Care USA, Division of Conopco, Inc., priority 2002, published 2004).

Assay: Iterative determination of perborate solubility in water and polyol/water (visual)
Assay type: physicochemical
Method: An iterative process was used to determine the extent of perborate solubilty in water and polyol/water. 1.5 g of Na perborate monohydrate was added either to 100 g of water (Table 1A) or to 90 g water and 10 g sorbitol (70% active) (Table 1B). The mixture was stirred until all of sodium perborate monohydrate was dissolved. A 0.5 g aliquot of sodium perborate monohydrate was then added to the solution while stirring and visually monitored to see if all the added sodium perborate monohydrate dissolves. If the aliquot dissolved, another 0.5 g of sodium perborate monohydrate would be added. This procedure was continued until the added perborate no longer appeared to dissolve.

[1] = 1.50 g in 90 g water + 10 g sorbitol (70%), perborate/sorbitol 1/3.55
[2] = 3.50 g in 90 g water + 10 g sorbitol (70%), perborate/sorbitol 1/1.01
[3] = 5.50 g in 90 g water + 10 g sorbitol (70%), perborate/sorbitol 1.43/1
[4] = 8.00 g in 90 g water + 10 g sorbitol (70%), perborate/sorbitol 2.09/1
[5] = 8.50 g in 90 g water + 10 g sorbitol (70%), perborate/sorbitol 2.22/1
[6] = 9.50 g in 90 g water + 10 g sorbitol (70%), perborate/sorbitol 2.49/1

For `O.O=BO[O-].[Na+]` [Sodium Perborate monohydrate, sodium perborate monohydrate], the Appearance [1] was “Clear solution”, the pH [1] was 8.30 and the Appearance (1.5 g in 100 g water) was “Clear solution”. The pH (1.5 g in 100 g water) was 10.00, the Appearance (2.0 g in 100 g water) was “Precipitate formed” and the pH (2.0 g in 100 g water) was 10.06. The Appearance [2] was “Clear solution”, the pH [2] was 9.33 and the Appearance [3] was “Clear solution”. The pH [3] was 9.56, the Appearance [4] was “Clear solution” and the pH [4] was 9.60. For the same molecule, the Appearance [5] was “Precipitate”, the pH [5] was 9.60 and the Appearance [6] was “Precipitate”. For the same molecule, the pH [6] was 9.60, the “solubility in water, in the presence of polyol” value (90 g water and 10 g sorbitol (70% active)) was “up to 8.5 g” and the “increase of solubility of perborate by polyol” value (aqueous environment, with sorbitol vs without) was “about 400%”. For the same molecule, the solubility in water (in 100 g water, no polyol) was “below 2.0 g”.
